Results published in ChEMBL document CHEMBL3108715, “Pan-histone demethylase inhibitors simultaneously targeting Jumonji C and lysine-specific demethylases display high anticancer activities” (J Med Chem, 2014).
Activity calls are given as the source filed them. The rule behind the calls is not given here.

What was measured:
HCT-116 = test: Inhibition of LSD1/JmjC in human HCT116 cells assessed as increase in H3K4me2/3 level at 50 uM by Western blotting analysis; format: cell-based
LNCaP [1] = test: Inhibition of LSD1/JmjC in human LNCAP cells assessed as increase in H3K9me3 level at 50 uM by Western blotting analysis; format: cell-based
LNCaP [2] = test: Inhibition of LSD1/JmjC in human LNCAP cells assessed as increase in H3K4me2/3 level at 50 uM by Western blotting analysis; format: cell-based
LNCaP [3] = test: Cytotoxicity against human LNCAP cells at 50 uM after 72 hrs; format: functional, cell-based
LNCaP [4] = test: Induction of apoptosis in human LNCAP cells at 10 to 100 uM after 48 hrs by propidium iodide staining-based FACS analysis; format: functional, cell-based
Egl nine homolog 1 = Egl nine homolog 1 (Homo sapiens, UniProt Q9GZT9); test: Inhibition of PHD2 (unknown origin) by mass spectrometry
[5] = molecular target: Hypoxia-inducible factor 1-alpha inhibitor (Homo sapiens, UniProt Q9NWT6); test: Inhibition of FIH (unknown origin) by mass spectrometry
Sequence of Hypoxia-inducible factor 1-alpha inhibitor (Q9NWT6 whole entry): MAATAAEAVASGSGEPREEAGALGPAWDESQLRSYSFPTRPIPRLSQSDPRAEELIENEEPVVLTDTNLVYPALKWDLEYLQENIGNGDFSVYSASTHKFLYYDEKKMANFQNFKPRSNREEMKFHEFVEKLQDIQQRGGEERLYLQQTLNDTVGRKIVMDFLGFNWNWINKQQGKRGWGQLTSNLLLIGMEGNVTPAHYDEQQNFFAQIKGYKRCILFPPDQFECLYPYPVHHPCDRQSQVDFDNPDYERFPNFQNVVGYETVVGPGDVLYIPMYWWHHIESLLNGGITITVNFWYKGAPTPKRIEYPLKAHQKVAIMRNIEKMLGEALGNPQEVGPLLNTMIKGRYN

Sequence of Egl nine homolog 1 (Q9GZT9 whole entry): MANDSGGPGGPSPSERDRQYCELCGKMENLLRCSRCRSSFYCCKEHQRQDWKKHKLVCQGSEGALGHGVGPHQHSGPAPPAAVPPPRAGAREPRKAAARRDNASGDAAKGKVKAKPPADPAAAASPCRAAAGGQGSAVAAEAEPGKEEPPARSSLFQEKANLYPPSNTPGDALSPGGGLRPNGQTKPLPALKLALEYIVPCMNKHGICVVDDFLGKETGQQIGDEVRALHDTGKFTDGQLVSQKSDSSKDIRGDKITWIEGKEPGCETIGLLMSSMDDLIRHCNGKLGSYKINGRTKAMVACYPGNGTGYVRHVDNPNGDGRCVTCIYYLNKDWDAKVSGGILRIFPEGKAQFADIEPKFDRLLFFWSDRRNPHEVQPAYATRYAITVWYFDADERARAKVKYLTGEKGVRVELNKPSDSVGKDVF

Structure (SMILES) | inhibition (HCT-116) | inhibition (LNCaP [1]) | inhibition (LNCaP [2]) | Activity (LNCaP [3]) | Activity (LNCaP [4]) | IC50 (Egl nine homolog 1) [µM] | IC50 [5] [µM]
Cl.N[C@@H]1C[C@H]1c1ccc(NC(=O)c2ccc(O)c3ncccc23)cc1 (relative stereo) | Active | Active | Active | Active | Active | 8.5 | 25
N[C@@H]1C[C@H]1c1ccc(NC(=O)c2ccnc(-c3cc(C(=O)O)ccn3)c2)cc1 (relative stereo) | – | – | – | – | – | 278 | > 100
COC(=O)c1ccnc(-c2cc(C(=O)Nc3ccc([C@@H]4C[C@H]4N)cc3)ccn2)c1.Cl (relative stereo) | Active | Active | Active | Active | Active | – | –
